Patent publication US20260070945A1, “MACROCYCLIC IMMUNOMODULATORS” (Bristol-Myers Squibb Company, priority 2022, published 2026)
*1 amine or outer side, *2 acyl side, *3 side chain or, on linkers, in order; H or OH if unused. Where a SMILES comes first, the peptide text is derived from it. Bridges are numbered along the chain shown (N, C = ends). [ ]: non-standard residue; d: D form. The star is where a group is joined. ξ: configuration not given here. Phe(3-CF3) = N[C@@H](Cc1cccc(C(F)(F)F)c1)C(=O)O; Ala(morpholin-4-yl) = N[C@@H](CN1CCOCC1)C(=O)O; Phe(4-COOH) = N[C@@H](Cc1ccc(C(=O)O)cc1)C(=O)O; Bip = N[C@@H](Cc1ccc(-c2ccccc2)cc1)C(=O)O; Phe(3-CN) = N#Cc1cccc(C[C@H](N)C(=O)O)c1; NH(CH2)14COOH = O=C(O)CCCCCCCCCCCCCCN*; Phe(3-Me) = Cc1cccc(C[C@H](N)C(=O)O)c1; NH(CH2)12COOH = O=C(O)CCCCCCCCCCCCN*; Val(3-OH) = CC(C)(O)[C@H](N)C(=O)O; X14 = O=C([C@H](CCCCO)N[*:1])[*:2]; hArg = N=C(N)NCCCC[C@H](N)C(=O)O; 4Pal = N[C@@H](Cc1ccncc1)C(=O)O; Cha = N[C@@H](CC1CCCCC1)C(=O)O; Cit = NC(=O)NCCC[C@H](N)C(=O)O; Ile(3ξ) = CCC(C)[C@H](N)C(=O)O; Thr(3ξ) = CC(O)[C@H](N)C(=O)O; dOrn = NCCC[C@@H](N)C(=O)O; hSer = N[C@@H](CCO)C(=O)O; Carboxymethyl = O=C(O)C*; NMeA = CN[C@@H](C)C(=O)O; Orn = NCCC[C@H](N)C(=O)O; Aun = NCCCCCCCCCCC(=O)O; Dab = NCC[C@H](N)C(=O)O; AEEA = NCCOCCOCC(=O)O; ξV = CC(C)C(N)C(=O)O

What follows are compounds tested against T1, PD-1/PD-L1 interaction (PE-labeled human PD-L1-Ig binding to Jurkat cell line over-expressing human PD-1) (Homo sapiens, UniProt Q15116) (assay: Jurkat-PD-1 Cell Binding High-Content Screening Assay (CBA)). Settings: Jurkat-hPD-1 cells, PE-labeled PD-L1-Ig 20 nM final; read-out: Jurkat HPD1 PDL1 IC50.
T1 construct: expressed in transfected cells; host or cells: Jurkat
How it was run: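 Cells 8×10^3/well, DMEM + 10% FCS; cpd 2 h, 37 °C; PE–PD-L1-Ig 20 nM final, 1 h; PFA fix + Hoechst 33342, 3× dPBS wash; high-content imager.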

T1 sequence (Q15116 25-288): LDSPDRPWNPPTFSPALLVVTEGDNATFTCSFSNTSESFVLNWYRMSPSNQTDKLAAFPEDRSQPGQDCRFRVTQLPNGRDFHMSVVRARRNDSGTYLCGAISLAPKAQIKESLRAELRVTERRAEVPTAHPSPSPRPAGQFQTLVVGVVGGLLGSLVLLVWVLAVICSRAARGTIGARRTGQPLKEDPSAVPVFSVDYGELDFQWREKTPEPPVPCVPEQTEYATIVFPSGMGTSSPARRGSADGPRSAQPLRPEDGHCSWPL

Row | Compound | IC50 [nM]
1 | CC(C)C[C@@H]1NC(=O)[C@H](Cc2c[nH]c3ccccc23)NC(=O)[C@H](CC(=O)O)NC(=O)[C@H](CCCCNC(=N)N)NC(=O)[C@H](Cc2ccc(OCC(=O)O)cc2)NC(=O)CSC[C@@H](C(=O)N[C@@H](CCCN)C(=O)NCCOCCOCC(=O)NCCCCCCCCCCC(=O)O)NC(=O)[C@H](CO)NC(=O)[C@H](C(C)C)NC(=O)[C@H](CC2CCCCC2)NC(=O)[C@H](CCN)NC(=O)[C@@H](CC(C)C)NC(=O)[C@H](C)N(C)C(=O)[C@H](C(C)C)NC(=O)[C@H](Cc2ccc(-c3ccccc3)cc2)NC1=O [Example 2140] ({CH2CO}-Y(Carboxymethyl)[hArg]DWL[Bip]V[NMeA][dL][Dab][Cha]VSC[Orn][AEEA][Aun]-OH; thioether N-14) | 15.7
2 | CC(C)C[C@@H]1NC(=O)[C@H](Cc2c[nH]c3ccccc23)NC(=O)[C@H](CC(=O)O)NC(=O)[C@H](Cc2ccc(C(=O)O)cc2)NC(=O)[C@H](Cc2ccc(OCC(=O)O)cc2)NC(=O)CSC[C@@H](C(=O)NCC(=O)N[C@@H](CCCN)C(=O)NCC(=O)NCCCCCCCCCCC(=O)O)NC(=O)[C@H](CO)NC(=O)[C@H](C(C)C)NC(=O)[C@H](CC2CCCCC2)NC(=O)[C@H](CCN)NC(=O)[C@@H](CC(C)C)NC(=O)[C@H](C)N(C)C(=O)[C@H](C(C)C)NC(=O)[C@H](Cc2ccc(-c3ccccc3)cc2)NC1=O [Example 1030] ({CH2CO}-Y(Carboxymethyl)[Phe(4-COOH)]DWL[Bip]V[NMeA][dL][Dab][Cha]VSCG[Orn]G[Aun]-OH; thioether N-14) | 10.6
3 | CC(C)C[C@@H]1NC(=O)[C@H](Cc2c[nH]c3ccccc23)NC(=O)[C@H](CC(=O)O)NC(=O)[C@H](Cc2ccc(C(=O)O)cc2)NC(=O)[C@H](Cc2ccc(OCC(=O)O)cc2)NC(=O)CSC[C@@H](C(=O)N[C@@H](CCN)C(=O)NCCOCCOCC(=O)NCCCCCCCCCCC(=O)O)NC(=O)[C@H](CCCNC(N)=O)NC(=O)[C@H](C(C)(C)O)NC(=O)[C@H](CC2CCCCC2)NC(=O)[C@H](CCN)NC(=O)[C@@H](CC(C)C)NC(=O)[C@H](C)N(C)C(=O)[C@H](C(C)C)NC(=O)[C@H](Cc2ccc(-c3ccccc3)cc2)NC1=O [Example 1122] ({CH2CO}-Y(Carboxymethyl)[Phe(4-COOH)]DWL[Bip]V[NMeA][dL][Dab][Cha][Val(3-OH)][Cit]C[Dab][AEEA][Aun]-OH; thioether N-14) | 3.8
4 | CCC(C)[C@@H]1NC(=O)[C@H](Cc2ccc(-c3ccccc3)cc2)NC(=O)[C@H](CC(C)C)NC(=O)[C@H](Cc2c[nH]c3ccccc23)NC(=O)[C@H](CC(=O)O)NC(=O)[C@H](Cc2ccc(O)cc2)NC(=O)[C@H](Cc2ccncc2)NC(=O)CSC[C@@H](C(=O)N[C@H](CCCN)C(=O)NCCOCCOCC(=O)NCCCCCCCCCCC(=O)O)NC(=O)[C@H](CO)NC(=O)[C@H](C(C)C)NC(=O)[C@H](CC2CCCCC2)NC(=O)[C@H](CC(N)=O)NC(=O)[C@@H](CC(C)C)NC(=O)[C@H](C)N(C)C1=O (stereo partly drawn) [Example 2070] ({CH2CO}-[4Pal]YDWL[Bip][Ile(3ξ)][NMeA][dL]N[Cha]VSC[dOrn][AEEA][Aun]-OH; thioether N-14) | 97.4
5 | CC(=O)NCCCC[C@@H]1NC(=O)[C@H](C(C)(C)O)NC(=O)[C@H](CC2CCCCC2)NC(=O)[C@H](CCN)NC(=O)[C@@H](CC(C)C)NC(=O)[C@H](C)N(C)C(=O)[C@H](CCC(N)=O)NC(=O)[C@H](Cc2ccc(-c3ccccc3)cc2)NC(=O)[C@H](Cc2ccc(C(=O)O)cc2)NC(=O)[C@H](Cc2cccc(C(F)(F)F)c2)NC(=O)[C@H](CC(=O)O)NC(=O)[C@H](Cc2ccc(OCC(=O)O)cc2)NC(=O)[C@H](CN2CCOCC2)NC(=O)CSC[C@@H](C(=O)N[C@@H](CCN)C(=O)NCCCCCCCCCCCCC(=O)O)NC1=O [Example 1153] ({CH2CO}-[Ala(morpholin-4-yl)]Y(Carboxymethyl)D[Phe(3-CF3)][Phe(4-COOH)][Bip]Q[NMeA][dL][Dab][Cha][Val(3-OH)]K(Ac)C[Dab]-{NH(CH2)12COOH}; thioether N-14) | 12.9
6 | CC(C)C[C@@H]1NC(=O)[C@H](Cc2c[nH]c3ccccc23)NC(=O)[C@H](CC(=O)O)NC(=O)[C@H](Cc2ccc(C(=O)O)cc2)NC(=O)[C@H](Cc2ccc(OCC(=O)O)cc2)NC(=O)CSC[C@@H](C(=O)NCCOCCOCC(=O)NCCCCCCCCCCC(=O)O)NC(=O)[C@H](CCO)NC(=O)[C@H](C(C)C)NC(=O)[C@H](CC2CCCCC2)NC(=O)[C@H](CCN)NC(=O)[C@@H](CC(C)C)NC(=O)[C@H](C)N(C)C(=O)[C@H](CCC(N)=O)NC(=O)[C@H](Cc2ccc(-c3ccccc3)cc2)NC1=O [Example 2226] ({CH2CO}-Y(Carboxymethyl)[Phe(4-COOH)]DWL[Bip]Q[NMeA][dL][Dab][Cha]V[hSer]C[AEEA][Aun]-OH; thioether N-14) | 26.7
7 | Cc1cccc(C[C@@H]2NC(=O)[C@H](CC(=O)O)NC(=O)[C@H](Cc3ccc(OCC(=O)O)cc3)NC(=O)[C@H](CCN)NC(=O)CSC[C@@H](C(=O)N[C@@H](CCN)C(=O)NCCCCCCCCCCC(=O)O)NC(=O)[C@H](CO)NC(=O)[C@H](C(C)(C)O)NC(=O)[C@H](CC3CCCCC3)NC(=O)[C@H](CCN)NC(=O)[C@@H](CC(C)C)NC(=O)[C@H](C)N(C)C(=O)[C@H](Cc3ccc(OCC(=O)O)cc3)NC(=O)[C@H](Cc3ccc(-c4ccccc4)cc3)NC(=O)[C@H](Cc3cccc(C#N)c3)NC2=O)c1 [Example 1306] ({CH2CO}-[Dab]Y(Carboxymethyl)D[Phe(3-Me)][Phe(3-CN)][Bip]Y(Carboxymethyl)[NMeA][dL][Dab][Cha][Val(3-OH)]SC[Dab][Aun]-OH; thioether N-14) | 23.9
8 | CC(=O)NCCCC[C@@H]1NC(=O)[C@H](CC2CCCCC2)NC(=O)[C@H](CCN)NC(=O)[C@@H](CC(C)C)NC(=O)[C@H](C)N(C)C(=O)[C@H](C(C)C)NC(=O)[C@H](Cc2ccc(-c3ccccc3)cc2)NC(=O)[C@H](C(C)C)NC(=O)[C@H](Cc2cccc(C)c2)NC(=O)[C@H](CC(=O)O)NC(=O)[C@H](Cc2ccc(OCC(=O)O)cc2)NC(=O)[C@H](C(C)O)NC(=O)CSC[C@@H](C(=O)N[C@@H](CCN)C(=O)NCCCCCCCCCCC(=O)O)NC(=O)[C@H](CO)NC1=O (stereo partly drawn) [Example 2300] ({CH2CO}-[Thr(3ξ)]Y(Carboxymethyl)D[Phe(3-Me)]V[Bip]V[NMeA][dL][Dab][Cha]K(Ac)SC[Dab][Aun]-OH; thioether N-14) | 15.6
9 | Cc1cccc(C[C@@H]2NC(=O)[C@H](CC(=O)O)NC(=O)[C@H](Cc3ccc(OCC(=O)O)cc3)NC(=O)[C@H](CC(N)=O)NC(=O)CSC[C@@H](C(=O)NCCCCCCCCCCC(=O)O)NC(=O)[C@H](CCCNC(N)=O)NC(=O)[C@H](C(C)C)NC(=O)[C@H](CC3CCCCC3)NC(=O)[C@H](CCN)NC(=O)[C@@H](CC(C)C)NC(=O)[C@H](C)N(C)C(=O)C(C(C)C)NC(=O)[C@H](Cc3ccc(-c4ccccc4)cc3)NC(=O)[C@H](CC(C)C)NC2=O)c1 (stereo partly drawn) [Example 2248] ({CH2CO}-NY(Carboxymethyl)D[Phe(3-Me)]L[Bip][ξV][NMeA][dL][Dab][Cha]V[Cit]C[Aun]-OH; thioether N-14) | 11
10 | Cc1cccc(C[C@@H]2NC(=O)[C@H](CC(=O)O)NC(=O)[C@H](Cc3ccc(C(=O)O)cc3)NC(=O)[C@H](Cc3ccc(OCC(=O)O)cc3)NC(=O)CSC[C@@H](C(=O)NCCOCCOCC(=O)NCCCCCCCCCCC(=O)O)NC(=O)[C@H](CCCCO)NC(=O)[C@H](C(C)C)NC(=O)[C@H](CC3CCCCC3)NC(=O)[C@H](CCN)NC(=O)[C@@H](CC(C)C)NC(=O)[C@H](C)N(C)C(=O)[C@H](Cc3ccc(O)cc3)NC(=O)[C@H](Cc3ccc(-c4ccccc4)cc3)NC(=O)[C@H](C(C)C)NC2=O)c1 [Example 2213] ({CH2CO}-Y(Carboxymethyl)[Phe(4-COOH)]D[Phe(3-Me)]V[Bip]Y[NMeA][dL][Dab][Cha]V[X14]C[AEEA][Aun]-OH; thioether N-14) | 14.4
11 | Cc1cccc(C[C@@H]2NC(=O)[C@H](CC(=O)O)NC(=O)[C@H](Cc3ccc(OCC(=O)O)cc3)NC(=O)[C@H](C(C)O)NC(=O)CSC[C@@H](C(=O)NCCOCCOCC(=O)NCCCCCCCCCCC(=O)O)NC(=O)[C@H](C(C)O)NC(=O)[C@H](C(C)C)NC(=O)[C@H](CC3CCCCC3)NC(=O)[C@H](CCN)NC(=O)[C@@H](CC(C)C)NC(=O)[C@H](C)N(C)C(=O)[C@H](Cc3ccc(OCC(=O)O)cc3)NC(=O)[C@H](Cc3ccc(-c4ccccc4)cc3)NC(=O)[C@H](Cc3ccc(OCC(=O)O)cc3)NC2=O)c1 (stereo partly drawn) [Example 2341] ({CH2CO}-[Thr(3ξ)]Y(Carboxymethyl)D[Phe(3-Me)]Y(Carboxymethyl)[Bip]Y(Carboxymethyl)[NMeA][dL][Dab][Cha]V[Thr(3ξ)]C[AEEA][Aun]-OH; thioether N-14) | 41.7
12 | CC(C)C[C@@H]1NC(=O)[C@H](Cc2c[nH]c3ccccc23)NC(=O)[C@H](CC(=O)O)NC(=O)[C@H](Cc2ccc(OCC(=O)O)cc2)NC(=O)[C@H](Cc2ccccc2)NC(=O)CSC[C@@H](C(=O)N[C@@H](CCCN)C(=O)NCCCCCCCCCCC(=O)O)NC(=O)[C@H](CCC(=O)O)NC(=O)[C@H](C(C)C)NC(=O)[C@H](CC(C)C)NC(=O)[C@H](CC(N)=O)NC(=O)[C@@H](CC(C)C)NC(=O)[C@H](C)N(C)C(=O)[C@H](C(C)C)NC(=O)[C@H](Cc2ccc(-c3ccccc3)cc2)NC1=O [Example 1336] ({CH2CO}-FY(Carboxymethyl)DWL[Bip]V[NMeA][dL]NLVEC[Orn][Aun]-OH; thioether N-14) | 198
13 | CC(C)C[C@@H]1NC(=O)[C@H](Cc2c[nH]c3ccccc23)NC(=O)[C@H](CC(=O)O)NC(=O)[C@H](Cc2ccc(C(=O)O)cc2)NC(=O)[C@H](C(C)O)NC(=O)CSC[C@@H](C(=O)N[C@@H](C)C(=O)N[C@@H](CCN)C(=O)NCCCCCCCCCCCCCCC(=O)O)NC(=O)[C@H](CO)NC(=O)[C@H](C(C)C)NC(=O)[C@H](CC2CCCCC2)NC(=O)[C@H](CCN)NC(=O)[C@@H](CC(C)C)NC(=O)[C@H](C)N(C)C(=O)[C@H](C(C)C)NC(=O)[C@H](Cc2ccc(-c3ccccc3)cc2)NC1=O (stereo partly drawn) [Example 2005] ({CH2CO}-[Thr(3ξ)][Phe(4-COOH)]DWL[Bip]V[NMeA][dL][Dab][Cha]VSCA[Dab]-{NH(CH2)14COOH}; thioether N-14) | 223
